Data as given in patent US20260248972A1, “DUAL RECEPTOR TARGETING RADIOLIGANDS AND USES THEREOF RELATED APPLICATIONS” (priority 2022, published 2026).
Where two headings read alike, the source gives them in different places.

Assays:
CCK2R = molecular target: T1, CCK2R (Homo sapiens, UniProt P32239); assay: Competitive binding (FACS) on CCK2R-transfected HEK 293T cells with Cy5-labeled F11N derivative; conditions: Cy5-labeled F11N derivative competitive ligand (Table 4)
T1 construct: expressed in transfected cells; host or cells: HEK 293T cells
T1 sequence (P32239 1-447): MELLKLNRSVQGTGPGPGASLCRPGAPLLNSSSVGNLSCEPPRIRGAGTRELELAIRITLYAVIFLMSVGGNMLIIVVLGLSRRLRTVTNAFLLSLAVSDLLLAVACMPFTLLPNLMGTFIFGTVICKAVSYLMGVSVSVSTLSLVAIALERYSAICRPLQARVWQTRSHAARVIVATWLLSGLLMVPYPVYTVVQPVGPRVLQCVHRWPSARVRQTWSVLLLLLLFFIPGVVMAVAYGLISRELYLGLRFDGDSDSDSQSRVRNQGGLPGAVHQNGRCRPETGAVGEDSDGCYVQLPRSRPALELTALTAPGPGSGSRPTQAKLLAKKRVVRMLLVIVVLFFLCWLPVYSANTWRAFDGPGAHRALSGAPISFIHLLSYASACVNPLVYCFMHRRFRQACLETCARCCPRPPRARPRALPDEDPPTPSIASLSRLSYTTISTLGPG

SSTR2 = molecular target: T2, SSTR2 (Homo sapiens, UniProt P30874); assay: Competitive binding (FACS) on SSTR2-transfected HEK 293T cells with Cy5-labled DOTA-TATE; conditions: HEK 293T transfected, Cy5-labled DOTA-TATE competitive ligand (Table 4)
T2 construct: expressed in transfected cells; host or cells: HEK 293T cells
Method: Binding Affinity Tested by Using Cy5-Labled Competitive Ligands.
HEK 293T cells were transfected with SSTR2 or CCK2R-expressing plasmid by Lipofectamine 2000 reagent. 24 hours after transfection, cells were harvested and suspended with assay buffer (1% OVA in DMEM). […] The testing compound was further supplemented into the wells at different concentrations. After incubation for 1 hour at dark, cells were washed and suspended in FACS buffer (1% OVA in DPBS). The fluorescent signal was detected by FACS machine and the binding affinity of the testing compound was evaluated by calculation of IC50 for competitive binding of reference compound.

[1] = HEK 293T transfected, read-out: CCK2R IC50

T2 sequence (P30874 whole entry, species assumed): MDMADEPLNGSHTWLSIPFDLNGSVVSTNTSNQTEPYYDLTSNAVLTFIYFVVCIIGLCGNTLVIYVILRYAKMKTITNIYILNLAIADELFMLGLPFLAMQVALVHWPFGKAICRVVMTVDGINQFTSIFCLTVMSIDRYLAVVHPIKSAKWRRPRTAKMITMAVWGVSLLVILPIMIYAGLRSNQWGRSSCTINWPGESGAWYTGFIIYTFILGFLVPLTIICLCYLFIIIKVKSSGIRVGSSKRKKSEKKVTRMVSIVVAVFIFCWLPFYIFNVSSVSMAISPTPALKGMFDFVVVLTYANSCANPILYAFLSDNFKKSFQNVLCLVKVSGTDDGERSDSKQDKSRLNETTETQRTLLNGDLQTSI

Row | IC50 (CCK2R; [1]) [nM] | IC50 (SSTR2) [nM] | SMILES | IC50 (CCK2R; CCK2R IC50, HEK 293T transfected) [nM]
1 | 11.2 | 5.44 | C[C@@H](O)[C@H](NC(=O)[C@@H]1CSSC[C@H](NC(=O)[C@@H](Cc2ccccc2)C(=O)C(=O)COCCOCCNC(=O)[C@H](CCCCCC(=O)COCCOCCNC(=O)COCCOCCCC(=O)[C@H](CCC(=O)O)NC(=O)c2cccc(NC(=O)NN3CCc4ccccc4N(CC(=O)C(C)(C)C)C3=O)c2)NC(=O)CN2CCN(CC(=O)O)CCN(CC(=O)O)CCN(CC(=O)O)CC2)C(=O)N[C@@H](Cc2ccc(O)cc2)C(=O)N[C@H](Cc2c[nH]c3ccccc23)C(=O)N[C@@H](CCCCN)C(=O)N[C@@H]([C@@H](C)O)C(=O)C1)C(=O)O [Compound I-76, DOTA-K(-OEG-OEG-Glu-Z360)-OEG-f[CYwKTC]T-OH] | –
2 | 19.4 | 4.77 | C[C@@H](O)[C@H](NC(=O)[C@@H]1CSSC[C@H](NC(=O)[C@@H](Cc2ccccc2)C(=O)C(=O)COCCOCCNC(=O)[C@H](CCCCCC(=O)COCCOCCNC(=O)CC[C@H](NC(=O)[C@H](CO)NC(=O)c2cccc(NC(=O)NN3CC(C4CCCCC4)c4ccccc4N(CC(=O)C(C)(C)C)C3=O)c2)C(=O)O)NC(=O)CN2CCN(CC(=O)O)CCN(CC(=O)O)CCN(CC(=O)O)CC2)C(=O)N[C@@H](Cc2ccc(O)cc2)C(=O)N[C@H](Cc2c[nH]c3ccccc23)C(=O)N[C@@H](CCCCN)C(=O)N[C@@H]([C@@H](C)O)C(=O)C1)C(=O)O (stereo partly shown) [Compound I-77, DOTA- K(-OEG- gGlu- Ser- Z360)- OEG- f]CYwKTC]T- OH] | –
3 | 30.5 | 6.13 | C[C@@H](O)[C@H](NC(=O)[C@@H]1CSSC[C@H](NC(=O)[C@@H](Cc2ccccc2)C(=O)C(=O)COCCOCCNC(=O)[C@H](CCCCCC(=O)COCCOCCNC(=O)CC[C@H](NC(=O)[C@H](CN)NC(=O)c2cccc(NC(=O)NN3CC(C4CCCCC4)c4ccccc4N(CC(=O)C(C)(C)C)C3=O)c2)C(=O)O)NC(=O)CN2CCN(CC(=O)O)CCN(CC(=O)O)CCN(CC(=O)O)CC2)C(=O)N[C@@H](Cc2ccc(O)cc2)C(=O)N[C@H](Cc2c[nH]c3ccccc23)C(=O)N[C@@H](CCCCN)C(=O)N[C@@H]([C@@H](C)O)C(=O)C1)C(=O)O (stereo partly shown) [Compound I-78, DOTA- K(-OEG- gGlu- Dap- Z360)- OEG- f[CYwKTC]T- OH] | –
4 | 24.2 | 5.03 | C[C@@H](O)[C@H](NC(=O)[C@@H]1CSSC[C@H](NC(=O)[C@@H](Cc2ccccc2)C(=O)C(=O)COCCOCCNC(=O)[C@H](CCCCCC(=O)COCCOCCNC(=O)COCCOCCNC(=O)C(Cc2ccc(C(=O)O)cc2)NC(=O)c2cccc(NC(=O)NN3CC(C4CCCCC4)c4ccccc4N(CC(=O)C(C)(C)C)C3=O)c2)NC(=O)CN2CCN(CC(=O)O)CCN(CC(=O)O)CCN(CC(=O)O)CC2)C(=O)N[C@@H](Cc2ccc(O)cc2)C(=O)N[C@H](Cc2c[nH]c3ccccc23)C(=O)N[C@@H](CCCCN)C(=O)N[C@@H]([C@@H](C)O)C(=O)C1)C(=O)O (stereo partly shown) [Compound I-80, DOTA-K(-OEG-OEG-Cbp-Z360)-OEG-f[CYwKTC]T-OH] | –

Row | SMILES | IC50 (CCK2R; [1]) [nM] | IC50 (SSTR2) [nM] | IC50 (CCK2R; CCK2R IC50, HEK 293T transfected) [nM]
5 | C[C@@H](O)[C@H](NC(=O)[C@@H]1CSSC[C@H](NC(=O)[C@@H](Cc2ccccc2)C(=O)C(=O)COCCOCCNC(=O)[C@H](CCCCCC(=O)COCCOCCNC(=O)[C@H](Cc2c[nH]cn2)NC(=O)[C@H](CCC(=O)O)NC(=O)c2cccc(NC(=O)N[C@@H]3CN(C4CCCCC4)c4ccccc4N(CC(=O)C(C)(C)C)C3=O)c2)NC(=O)CN2CCN(CC(=O)O)CCN(CC(=O)O)CCN(CC(=O)O)CC2)C(=O)N[C@@H](Cc2ccc(O)cc2)C(=O)N[C@H](Cc2c[nH]c3ccccc23)C(=O)N[C@@H](CCCCN)C(=O)N[C@@H]([C@@H](C)O)C(=O)C1)C(=O)O [Compound I-79, DOTA- K(-OEG- His- Glu- Z360)- OEG- f[CYwKTC]T- OH] | – | 6.75 | 16.5
